Experimental data from patent US20100267561A1, “HERBICIDAL PYRIDAZINONE DERIVATIVES” (priority 2007, published 2010).

How the values were obtained:
Type in all cases: in vivo
[1] = tested on: chickweed (Stellaria media); assay: Test B postemergence plant response; conditions: for Chickweed plant response rating: 8 g ai/ha, postemergence, 0-100 scale; for Plant response rating, Chickweed: Postemergence
Outline: (§1)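 Postemergence greenhouse test; plants at 2 to 18 cm (1- to 4-leaf stage) given formulated test chemical, held 13 to 15 days, then visually rated against untreated controls on a 0 (no effect) to 100 (complete control) scale; dash means no result.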

[2] = tested on: canarygrass (Phalaris minor); assay: Test B postemergence plant response; conditions: for Canarygrass plant response rating: 8 g ai/ha, postemergence, 0-100 scale; for Plant response rating, Canarygrass: Postemergence
Outline: as §1

[3] = tested on: downy bromegrass (Bromus tectorum); assay: Test C pre-/postemergence plant response; conditions: Preemergence
Outline: (§2)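 Greenhouse-type test under controlled conditions: soil-surface preemergence treatment of sown seed and foliar postemergence treatment of seedlings 2–18 cm tall. Each compound was in non-phytotoxic solvent with surfactant. Response was rated by eye after 15–25 days, 0 to 100, against controls.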

[4] = tested on: spring barley (Hordeum vulgare); assay: Test C pre-/postemergence plant response; conditions: Preemergence
Outline: as §2

[5] = tested on: windgrass (Apera spica-venti); assay: Test C pre-/postemergence plant response; conditions: Preemergence
Outline: as §2

wild oat (Avena fatua) = assay: Test C pre-/postemergence plant response; conditions: Preemergence
Outline: as §2

[6] = tested on: annual bluegrass (Poa annua); assay: Test C pre-/postemergence plant response; conditions: Preemergence
Outline: as §2

[7] = tested on: spring wheat (Triticum aestivum); assay: Test C pre-/postemergence plant response; conditions: Preemergence
Outline: as §2

[8] = tested on: Italian ryegrass (Lolium multiflorum); assay: Test C pre-/postemergence plant response; conditions: Preemergence
Outline: as §2

[9] = tested on: blackgrass (Alopecurus myosuroides); assay: Test C pre-/postemergence plant response; conditions: Preemergence
Outline: as §2

[10] = tested on: wild mustard (Sinapis arvensis); assay: Test C pre-/postemergence plant response; conditions: Preemergence
Outline: as §2

[11] = tested on: pigweed (Amaranthus retroflexus); assay: Test C pre-/postemergence plant response; conditions: Preemergence
Outline: as §2

[12] = tested on: green foxtail (Setaria viridis); assay: Test C pre-/postemergence plant response; conditions: Preemergence
Outline: as §2

[13] = tested on: winter wheat (Triticum aestivum); assay: Test C pre-/postemergence plant response; conditions: Preemergence
Outline: as §2

[14] = tested on: canarygrass (Phalaris minor); assay: Test C pre-/postemergence plant response; conditions: Preemergence
Outline: as §2

[15] = tested on: winter barley (Hordeum vulgare); assay: Test C pre-/postemergence plant response; conditions: Preemergence
Outline: as §2

[16] = 31 g ai/ha, scale 0 to 100, 0 no effect, 100 complete control
[17] = 62 g ai/ha, scale 0 to 100, 0 no effect, 100 complete control
[18] = 8 g ai/ha, scale 0 to 100 (0 no effect, 100 complete control)
[19] = 16 g ai/ha, scale 0 to 100 (0 no effect, 100 complete control)
[20] = 31 g ai/ha, scale 0 to 100 (0 no effect, 100 complete control)

Cn1ncc(O)c(-c2nn(-c3ccc(Cl)cc3)cc2Cl)c1=O [Compound 28]
35: Plant response rating, Wheat, Spring [7, 20]
30: Plant response rating, Windgrass [5, 19] | Plant response rating, Wheat, Winter [13, 20]
10: Plant response rating, Wheat, Winter [13, 19] | Plant response rating, Canarygrass [14, 20]
50: Plant response rating, Canarygrass [2, 16] | Plant response rating, Bluegrass [6, 17] | Plant response rating, Wheat, Spring [7, 17]
5: Plant response rating, Blackgrass [9, 19]
25: Plant response rating, Barley, Spring [4, 17]
60: Plant response rating, Wheat, Winter [13, 17]
0: Chickweed plant response rating [1] | Plant response rating, Chickweed ([1]; 16 g ai/ha, scale 0 to 100) | Plant response rating, Chickweed [1, 16] | Plant response rating, Chickweed [1, 17] | Canarygrass plant response rating [2] | Plant response rating, Canarygrass ([2]; 16 g ai/ha, scale 0 to 100) | Plant response rating, Bromegrass, Downy [3, 18] | Plant response rating, Bromegrass, Downy [3, 19] | Plant response rating, Barley, Spring [4, 18] | Plant response rating, Oat, Wild (wild oat (Avena fatua); [18]) | Plant response rating, Oat, Wild (wild oat (Avena fatua); [19]) | Plant response rating, Bluegrass [6, 18] | Plant response rating, Bluegrass [6, 19] | Plant response rating, Wheat, Spring [7, 18] | Plant response rating, Wheat, Spring [7, 19] | Plant response rating, Ryegrass, Italian [8, 18] | Plant response rating, Blackgrass [9, 18] | Plant response rating, Mustard, Wild [10, 18] | Plant response rating, Mustard, Wild [10, 19] | Plant response rating, Mustard, Wild [10, 20] | Plant response rating, Mustard, Wild [10, 17] | Plant response rating, Pigweed [11, 18] | Plant response rating, Pigweed [11, 19] | Plant response rating, Pigweed [11, 20] | Plant response rating, Pigweed [11, 17] | Plant response rating, Foxtail, Green [12, 18] | Plant response rating, Wheat, Winter [13, 18] | Plant response rating, Canarygrass [14, 18] | Plant response rating, Canarygrass [14, 19] | Plant response rating, Barley, Winter [15, 18] | Plant response rating, Barley, Winter [15, 19] | Plant response rating, Barley, Winter [15, 20]
95: Plant response rating, Ryegrass, Italian [8, 17]
75: Plant response rating, Bromegrass, Downy [3, 17] | Plant response rating, Windgrass [5, 20] | Plant response rating, Oat, Wild (wild oat (Avena fatua); [17])
20: Plant response rating, Bromegrass, Downy [3, 20] | Plant response rating, Windgrass [5, 18] | Plant response rating, Oat, Wild (wild oat (Avena fatua); [20]) | Plant response rating, Foxtail, Green [12, 19]
90: Plant response rating, Ryegrass, Italian [8, 20] | Plant response rating, Canarygrass [14, 17]
15: Plant response rating, Barley, Spring [4, 19] | Plant response rating, Barley, Spring [4, 20] | Plant response rating, Ryegrass, Italian [8, 19] | Plant response rating, Blackgrass [9, 20]
100: Plant response rating, Foxtail, Green [12, 20] | Plant response rating, Foxtail, Green [12, 17]
40: Plant response rating, Barley, Winter [15, 17]
85: Plant response rating, Windgrass [5, 17] | Plant response rating, Blackgrass [9, 17]

Cc1cc(-c2ccc(Cl)cc2)nn1-c1c(OC(=O)C(C)C)cnn(C)c1=O [Compound 34]
35: Plant response rating, Bluegrass [6, 17] | Plant response rating, Barley, Winter [15, 17]
70: Plant response rating, Barley, Spring [4, 17] | Plant response rating, Oat, Wild (wild oat (Avena fatua); [20])
10: Canarygrass plant response rating [2] | Plant response rating, Canarygrass ([2]; 16 g ai/ha, scale 0 to 100) | Plant response rating, Bromegrass, Downy [3, 20] | Plant response rating, Wheat, Winter [13, 19] | Plant response rating, Barley, Winter [15, 20]
25: Plant response rating, Wheat, Winter [13, 20]
85: Plant response rating, Blackgrass [9, 17]
20: Plant response rating, Canarygrass [2, 16] | Plant response rating, Canarygrass [2, 17] | Plant response rating, Windgrass [5, 20] | Plant response rating, Blackgrass [9, 19] | Plant response rating, Canarygrass [14, 19]
65: Plant response rating, Canarygrass [14, 20]
30: Plant response rating, Ryegrass, Italian [8, 18] | Plant response rating, Foxtail, Green [12, 18]
75: Plant response rating, Oat, Wild (wild oat (Avena fatua); [17]) | Plant response rating, Blackgrass [9, 20]
90: Plant response rating, Wheat, Spring [7, 17]
0: Chickweed plant response rating [1] | Plant response rating, Chickweed ([1]; 16 g ai/ha, scale 0 to 100) | Plant response rating, Chickweed [1, 16] | Plant response rating, Chickweed [1, 17] | Plant response rating, Bromegrass, Downy [3, 18] | Plant response rating, Bromegrass, Downy [3, 19] | Plant response rating, Barley, Spring [4, 18] | Plant response rating, Barley, Spring [4, 19] | Plant response rating, Barley, Spring [4, 20] | Plant response rating, Windgrass [5, 18] | Plant response rating, Windgrass [5, 19] | Plant response rating, Oat, Wild (wild oat (Avena fatua); [18]) | Plant response rating, Oat, Wild (wild oat (Avena fatua); [19]) | Plant response rating, Bluegrass [6, 18] | Plant response rating, Bluegrass [6, 19] | Plant response rating, Bluegrass [6, 20] | Plant response rating, Wheat, Spring [7, 18] | Plant response rating, Wheat, Spring [7, 19] | Plant response rating, Blackgrass [9, 18] | Plant response rating, Mustard, Wild [10, 19] | Plant response rating, Mustard, Wild [10, 20] | Plant response rating, Mustard, Wild [10, 17] | Plant response rating, Pigweed [11, 18] | Plant response rating, Pigweed [11, 19] | Plant response rating, Pigweed [11, 20] | Plant response rating, Pigweed [11, 17] | Plant response rating, Wheat, Winter [13, 18] | Plant response rating, Canarygrass [14, 18] | Plant response rating, Barley, Winter [15, 18] | Plant response rating, Barley, Winter [15, 19]
50: Plant response rating, Wheat, Spring [7, 20]
100: Plant response rating, Ryegrass, Italian [8, 19] | Plant response rating, Ryegrass, Italian [8, 20] | Plant response rating, Ryegrass, Italian [8, 17] | Plant response rating, Foxtail, Green [12, 19] | Plant response rating, Foxtail, Green [12, 20] | Plant response rating, Foxtail, Green [12, 17] | Plant response rating, Canarygrass [14, 17]
60: Plant response rating, Bromegrass, Downy [3, 17] | Plant response rating, Windgrass [5, 17] | Plant response rating, Wheat, Winter [13, 17]
